Structures can show the parent of a compound that is named as a salt.
Columns and labels:
[1] = Pharmacokinetic study in mice; type: in vivo; details: mouse, plasma
Procedure: Experimental Example 3: Pharmacokinetic Study in Mice
This experiment was intended to evaluate the pharmacokinetic behavior of the compound after a single intravenous injection or intragastric administration in mice.
The concentration of the test compound in plasma was determined by high performance liquid chromatography-tandem mass spectrometry (LC-MS/MS). The retention times of the compound and internal standard, chromatogram acquisitions and integrals of chromatograms were processed using the software Analyst (Applied Biosystems), and the data statistics were processed using the software Watson LIMS (Thermo Fisher Scientific) or Analyst (Applied Biosystems).
The plasma concentrations were processed using a non-compartmental model of WinNonlin™ Version 6.3 (Pharsight, Mountain View, CA), a pharmacokinetic software, and the pharmacokinetic parameters were calculated using a linear-log trapezoidal method.
The related pharmacokinetic parameters in the mice at 1 mg/Kg intravenous injection and 5 mg/Kg oral intragastric administration of the hydrochloride of the compound of formula (I) are shown in Table 4 below.

human TLR8 = human TLR8 (Homo sapiens (Human), UniProt Q9NR97); experiment: HEK-Blue hTLR8 SEAP reporter agonist assay; type: cell-based; details: HEK-Blue hTLR8 cells, 24 hours, SEAP OD650
Sequence of human TLR8 (Q9NR97 27-1041): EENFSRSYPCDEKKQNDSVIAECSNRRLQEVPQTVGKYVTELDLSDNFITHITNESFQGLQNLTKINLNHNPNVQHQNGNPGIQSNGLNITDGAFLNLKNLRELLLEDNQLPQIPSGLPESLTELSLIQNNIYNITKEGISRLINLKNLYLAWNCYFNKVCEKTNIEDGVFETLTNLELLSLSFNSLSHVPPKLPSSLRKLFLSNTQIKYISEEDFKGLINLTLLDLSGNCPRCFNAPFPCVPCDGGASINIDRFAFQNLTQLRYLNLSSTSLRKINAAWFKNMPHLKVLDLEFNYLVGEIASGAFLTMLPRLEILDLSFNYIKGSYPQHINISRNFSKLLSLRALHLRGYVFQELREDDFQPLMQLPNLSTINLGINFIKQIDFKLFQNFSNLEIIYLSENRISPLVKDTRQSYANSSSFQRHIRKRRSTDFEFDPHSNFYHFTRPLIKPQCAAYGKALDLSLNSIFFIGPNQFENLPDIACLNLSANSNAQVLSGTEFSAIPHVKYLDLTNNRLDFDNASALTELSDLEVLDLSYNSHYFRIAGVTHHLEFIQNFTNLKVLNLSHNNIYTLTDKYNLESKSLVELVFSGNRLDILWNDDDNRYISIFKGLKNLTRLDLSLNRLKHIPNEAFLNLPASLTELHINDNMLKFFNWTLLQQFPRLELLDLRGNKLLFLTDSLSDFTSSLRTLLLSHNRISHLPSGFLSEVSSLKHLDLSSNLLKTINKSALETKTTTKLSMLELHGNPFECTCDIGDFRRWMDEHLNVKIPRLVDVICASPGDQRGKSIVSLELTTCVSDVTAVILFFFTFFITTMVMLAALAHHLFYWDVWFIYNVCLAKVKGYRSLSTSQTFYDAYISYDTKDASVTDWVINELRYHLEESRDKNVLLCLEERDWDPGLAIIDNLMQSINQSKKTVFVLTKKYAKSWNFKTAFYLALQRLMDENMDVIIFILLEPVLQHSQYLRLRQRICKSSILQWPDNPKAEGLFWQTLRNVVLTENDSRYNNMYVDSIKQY
Source text: (§1) Experimental Example 1: Screening for In Vitro Receptor Binding Activity of Human Toll-Like Receptor 7 (TLR7) and Human Toll-Like Receptor 8 (TLR8)
(§2) The HEK-Blue™ hTLR7 (catalog No.: hkb-htlr7) and HEK-Blue™ hTLR8 (catalog No.: hkb-htlr8) cell lines used in this experiment were purchased from InvivoGen. The two cell lines were constructed by a human embryonic kidney 293 cell line stably co-transfecting hTLR7 or hTLR8 and inducing expression of Secreted Alkaline Phosphatase (SEAP) reporter gene, wherein SEAP reporter gene was regulated by an IFN-β promoter. […]
(§3) 2. […] The cells were counted and the cell suspension was adjusted to 500,000 cells/mL with the culture medium. […]
(§4) 4. Activity assay on the compound: 20 µL of the induced cell supernatant from each well was added to a cell culture plate containing 180 µL of QUANTI-Blue™ reagent, and after incubation at 37° C. for 1 hour, the optical density absorbance at 650 nm (OD650) was assayed for each well using a multi-functional microplate reader.
(§5) 5. Activity assay on the cells: luciferase signal (RLU) was detected using a multi-functional microplate reader as per the process described in the instructions of ATPlite 1 Step.
(§6) 6. Data analysis: compound activity: OD650 values were analyzed using a GraphPad Prism software and the dose-response curves of the compound were fitted to calculate EC50 values (half maximal effect concentration) for the compound.

human TLR7 = human TLR7 (Homo sapiens (Human), UniProt Q9NYK1); experiment: HEK-Blue hTLR7 SEAP reporter agonist assay; type: cell-based; details: HEK-Blue hTLR7 cells, 24 hours, SEAP OD650
Sequence of human TLR7 (Q9NYK1 27-1049): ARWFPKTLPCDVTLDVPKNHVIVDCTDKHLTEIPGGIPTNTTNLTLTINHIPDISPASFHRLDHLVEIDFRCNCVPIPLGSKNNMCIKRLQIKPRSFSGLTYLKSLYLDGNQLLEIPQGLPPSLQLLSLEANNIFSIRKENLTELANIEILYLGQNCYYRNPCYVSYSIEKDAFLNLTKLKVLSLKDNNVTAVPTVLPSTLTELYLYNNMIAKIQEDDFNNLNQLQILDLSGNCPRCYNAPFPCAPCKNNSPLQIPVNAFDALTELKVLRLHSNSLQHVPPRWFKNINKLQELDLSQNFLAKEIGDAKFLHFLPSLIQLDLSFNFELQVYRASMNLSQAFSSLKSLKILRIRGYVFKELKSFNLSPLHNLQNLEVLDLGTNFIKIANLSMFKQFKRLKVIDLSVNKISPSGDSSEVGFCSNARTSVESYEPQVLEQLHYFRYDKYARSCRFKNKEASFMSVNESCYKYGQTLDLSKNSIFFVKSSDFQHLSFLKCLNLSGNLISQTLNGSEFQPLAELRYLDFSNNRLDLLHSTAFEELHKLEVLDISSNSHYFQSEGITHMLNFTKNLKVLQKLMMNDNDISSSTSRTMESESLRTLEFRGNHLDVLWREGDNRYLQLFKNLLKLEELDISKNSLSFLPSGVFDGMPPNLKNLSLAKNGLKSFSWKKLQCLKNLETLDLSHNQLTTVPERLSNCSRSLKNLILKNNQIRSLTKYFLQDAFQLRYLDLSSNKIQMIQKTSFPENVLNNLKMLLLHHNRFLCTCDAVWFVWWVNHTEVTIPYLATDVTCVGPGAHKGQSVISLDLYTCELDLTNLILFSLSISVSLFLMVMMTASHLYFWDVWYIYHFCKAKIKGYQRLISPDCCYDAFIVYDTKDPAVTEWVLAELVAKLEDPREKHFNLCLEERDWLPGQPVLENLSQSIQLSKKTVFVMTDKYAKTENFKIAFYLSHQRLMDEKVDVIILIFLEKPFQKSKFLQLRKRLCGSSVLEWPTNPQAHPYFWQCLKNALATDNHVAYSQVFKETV
Source text: as §1, §2, §3, §4, §5, §6

[2] = High-temperature (60° C.) stability testing; type: physicochemical
Procedure: 2) Testing for the Effect of Temperature
Each sample was placed on an open watch glass and tested under high-temperature conditions (60° C.).

Photostability testing = type: physicochemical; details: for Appearance / Content / Enantiomer / Total impurity content / Water: photostability
Source text: 1) Photostability Testing
Two test samples (one as a 5-day test sample, the other as a 10-day test sample) and two controls (one as a 5-day control, the other as a 10-day control) were used. The test samples were spread as thin layers on clean watch glasses and covered with quartz glass covers. The controls were packaged in the same manner as the test samples except that the watch glasses were covered with aluminum film.
Test conditions: a photostability tester.

[3] = Accelerated stability testing (40±2° C./75±5% RH); type: physicochemical
Procedure: Inner packaging: a double-layer medical low-density polyethylene bag; outer packaging: an aluminum foil bag.
Test conditions: 40±2° C./75±5% RH.

[4] = High-humidity (25° C./92.5 RH) stability testing; type: physicochemical; details: for Appearance / Content / Enantiomer / Total impurity content / Water: 25° C./92.5RH
Procedure: 3) Testing for the Effect of Humidity
Each sample was placed in an open low-form weighing bottle and tested under high-humidity conditions (25° C./92.5 RH).

[5] = oral intragastric administration 5 mg/Kg
[6] = Day 5, control group (aluminum film)
[7] = Day 10, control group (aluminum film)

CCCC[C@](C)(Cc1ncn[nH]1)Nc1nc(N)nc2cnccc12 [Hydrochloride of compound of formula (I)]
bioavailability ([1]; 5 mg/Kg oral vs 1 mg/Kg intravenous, read-out: Bioavailability (F%)): 27.7%
AUC(0-t) ([1]; intravenous injection 1 mg/Kg): 0.45 µM·h
clearance ([1]; intravenous injection 1 mg/Kg): 90.2 mL/min/kg
Vd ([1]; intravenous injection 1 mg/Kg, read-out: Vdss): 1.75 L/kg
half-life ([1]; intravenous injection 1 mg/Kg, read-out: t½ (converted)): 15 min
AUC(0-t) [1, 5]: 0.624 µM·h
Cmax [1, 5]: 421 nM
Tmax [1, 5]: 30 min
EC50 (human TLR8): 0.003 µM
EC50 (human TLR7): 33.3 µM

CCCC[C@](C)(Cc1ncn[nH]1)Nc1nc(N)nc2cnccc12
High-temperature stability (conclusion) ([2]; 5-day, 10-day and 30-day): good high-temperature stability
Appearance ([2]; Day 5): Off-white powder
Content ([2]; Day 5): 99.1%
Enantiomer ([2]; Day 5): 0.35%
Total impurity content ([2]; Day 5): <0.05%
Water ([2]; Day 5): 0.25%
Appearance ([2]; Day 10): Off-white powder
Content ([2]; Day 10): 99.0%
Enantiomer ([2]; Day 10): 0.37%
Total impurity content ([2]; Day 10): <0.05%
Water ([2]; Day 10): 0.24%
Appearance ([2]; Day 30): Off-white powder
Content ([2]; Day 30): 98.2%
Enantiomer ([2]; Day 30): 0.34%
Total impurity content ([2]; Day 30): <0.05%
Water ([2]; Day 30): 0.26%
Appearance ([2]; initial value): Off-white powder
Content ([2]; initial value): 98.3%
Enantiomer ([2]; initial value): 0.34%
Total impurity content ([2]; initial value): <0.05%
Water ([2]; initial value): 0.19%
Photostability (conclusion) (Photostability testing; lighting conditions, 5-day and 10-day): good photostability
Appearance (Photostability testing; [6]): Off-white powder
Content (Photostability testing; [6]): 98.7%
Enantiomer (Photostability testing; [6]): 0.35%
Total impurity content (Photostability testing; [6]): <0.05%
Water (Photostability testing; [6]): 0.25%
Appearance (Photostability testing; Day 5, test group): Off-white powder
Content (Photostability testing; Day 5, test group): 98.8%
Enantiomer (Photostability testing; Day 5, test group): 0.34%
Total impurity content (Photostability testing; Day 5, test group): <0.05%
Water (Photostability testing; Day 5, test group): 0.24%
Appearance (Photostability testing; [7]): Off-white powder
Content (Photostability testing; [7]): 99.1%
Enantiomer (Photostability testing; [7]): 0.36%
Total impurity content (Photostability testing; [7]): <0.05%
Water (Photostability testing; [7]): 0.25%
Appearance (Photostability testing; Day 10, test group): Off-white powder
Content (Photostability testing; Day 10, test group): 98.6%
Enantiomer (Photostability testing; Day 10, test group): 0.34%
Total impurity content (Photostability testing; Day 10, test group): <0.05%
Water (Photostability testing; Day 10, test group): 0.25%
Appearance (Photostability testing; initial value): Off-white powder
Content (Photostability testing; initial value): 98.3%
Enantiomer (Photostability testing; initial value): 0.34%
Total impurity content (Photostability testing; initial value): <0.05%
Water (Photostability testing; initial value): 0.19%
Appearance ([3]; Month 1): Off-white powder
Content ([3]; Month 1): 98.9%
Total impurity content ([3]; Month 1): <0.05%
Water ([3]; Month 1): 0.30%
Appearance ([3]; Month 2): Off-white powder
Content ([3]; Month 2): 99.5%
Total impurity content ([3]; Month 2): <0.05%
Water ([3]; Month 2): 0.31%
Appearance ([3]; Month 3): Off-white powder
Content ([3]; Month 3): 98.8%
Enantiomer ([3]; Month 3): 0.32%
Stability under accelerated conditions (conclusion, XRPD) ([3]; Month 3): stays stable under accelerated conditions
Total impurity content ([3]; Month 3): <0.05%
Water ([3]; Month 3): 0.28%
XRPD ([3]; Month 3): Crystal form A
Appearance ([3]; Month 6): Off-white powder
Content ([3]; Month 6): 99.3%
Enantiomer ([3]; Month 6): 0.34%
Total impurity content ([3]; Month 6): <0.05%
Water ([3]; Month 6): 0.34%
Appearance ([3]; initial value): Off-white powder
Content ([3]; initial value): 98.3%
Enantiomer ([3]; initial value): 0.34%
Total impurity content ([3]; initial value): <0.05%
Water ([3]; initial value): 0.19%
XRPD ([3]; initial value): Crystal form A
High-humidity stability (conclusion) ([4]; 25° C./92.5 RH, 5-day, 10-day and 30-day): good high-humidity stability
Appearance ([4]; Day 5): Off-white powder
Content ([4]; Day 5): 98.8%
Enantiomer ([4]; Day 5): 0.35%
Total impurity content ([4]; Day 5): <0.05%
Water ([4]; Day 5): 0.29%
Appearance ([4]; Day 10): Off-white powder
Content ([4]; Day 10): 99.4%
Enantiomer ([4]; Day 10): 0.35%
Total impurity content ([4]; Day 10): <0.05%
Water ([4]; Day 10): 0.29%
Appearance ([4]; Day 30): Off-white powder
Content ([4]; Day 30): 98.7%
Enantiomer ([4]; Day 30): 0.35%
Total impurity content ([4]; Day 30): <0.05%
Water ([4]; Day 30): 0.30%
Appearance ([4]; initial value): Off-white powder
Content ([4]; initial value): 98.3%
Enantiomer ([4]; initial value): 0.34%
Total impurity content ([4]; initial value): <0.05%
Water ([4]; initial value): 0.19%
